The target of the experiment is T1, human PD-1 / PD-L1-Ig binding on Jurkat cell line over-expressing human PD-1 (Jurkat-PD-1) (Homo sapiens, UniProt Q15116).
T1 construct: expressed in transfected cells; host or cells: Jurkat
Nature of the experiment: Jurkat-PD-1 Cell Binding High-Content Screening Assay (CBA). Format: cell-based. The settings on record: PE-labeled PD-L1-Ig 20 nM final. The method, boiled down: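 Jurkat-hPD-1 cells in DMEM with 10% fetal calf serum receive test compound and are held at 37° C for 2 h. PE-labeled PD-L1-Ig is added at 20 nM final and left for 1 hour. Cells are then fixed and Hoechst-stained, and binding is measured by imaging.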

Where [1] appears, read: Jurkat-PD-1 cells, read-out: Jurkat HPD1_PDL1 IC50.

Molecules are shown by their SMILES. Read-outs that look alike come from different tables or passages of the source. Where a SMILES comes first, the peptide text is derived from it. Bridges are numbered along the chain shown (N, C = ends). [ ]: non-standard residue; d: D form. The star is where a group is joined. Phe(4-COOH) = N[C@@H](Cc1ccc(C(=O)O)cc1)C(=O)O; Bip = N[C@@H](Cc1ccc(-c2ccccc2)cc1)C(=O)O; Phe(3-Me) = Cc1cccc(C[C@H](N)C(=O)O)c1; Phe(2-F) = N[C@@H](Cc1ccccc1F)C(=O)O; Val(3-OH) = CC(C)(O)[C@H](N)C(=O)O; 4Pal = N[C@@H](Cc1ccncc1)C(=O)O; 3Thi = N[C@@H](Cc1ccsc1)C(=O)O; Cha = N[C@@H](CC1CCCCC1)C(=O)O; Ahp(2) = CCCCC[C@H](N)C(=O)O; Carboxymethyl = O=C(O)C*; Nle = CCCC[C@H](N)C(=O)O; Orn = NCCC[C@H](N)C(=O)O; Dab = NCC[C@H](N)C(=O)O; Dap = NC[C@H](N)C(=O)O

T1 sequence (Q15116 25-288): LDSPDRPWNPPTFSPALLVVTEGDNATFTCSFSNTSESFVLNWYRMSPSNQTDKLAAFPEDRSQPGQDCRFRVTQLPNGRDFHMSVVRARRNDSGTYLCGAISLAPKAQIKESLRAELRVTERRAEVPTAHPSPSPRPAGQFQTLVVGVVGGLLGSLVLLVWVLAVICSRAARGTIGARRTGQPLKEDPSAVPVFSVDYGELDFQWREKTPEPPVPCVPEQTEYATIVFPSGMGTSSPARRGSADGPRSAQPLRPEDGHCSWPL

As for `CCCC[C@@H]1NC(=O)[C@H](CC(N)=O)NC(=O)[C@@H](CC(C)C)NC(=O)[C@H](CN)NC(=O)[C@H](C(C)C)NC(=O)[C@H](Cc2ccc(-c3ccccc3)cc2)NC(=O)[C@H](CC(C)C)NC(=O)[C@H](Cc2c[nH]c3ccccc23)NC(=O)[C@H](CC(=O)O)NC(=O)[C@H](Cc2ccc(O)cc2)NC(=O)[C@H](Cc2ccccc2)NC(=O)CSC[C@@H](C(=O)NCC(N)=O)NC(=O)[C@H](CO)NC(=O)[C@H](C(C)C)NC1=O` [Compound 1397] ({CH2CO}-FYDWL[Bip]V[Dap][dL]N[Nle]VSCG-NH2; thioether N-14), the IC50 (commonly the concentration needed to halve the response being measured) under setting [1] worked out at 55.3 nM. Still for that read-out and setting: next, `CC(C)C[C@@H]1NC(=O)[C@H](CCN)NC(=O)[C@@H](CC(C)C)NC(=O)[C@H](CCCN)NC(=O)[C@H](C(C)C)NC(=O)[C@H](Cc2ccc(-c3ccccc3)cc2)NC(=O)[C@H](C(C)C)NC(=O)[C@H](Cc2c[nH]c3ccccc23)NC(=O)[C@H](CC(=O)O)NC(=O)[C@H](Cc2ccc(OCC(=O)O)cc2)NC(=O)[C@H](Cc2ccc(OCC(=O)O)cc2)NC(=O)CSC[C@@H](C(=O)N[C@@H](C)C(N)=O)NC(=O)[C@H]([C@@H](C)O)NC(=O)[C@H](C(C)C)NC1=O` [Compound 1245] ({CH2CO}-Y(Carboxymethyl)Y(Carboxymethyl)DWV[Bip]V[Orn][dL][Dab]LVTCA-NH2; thioether N-14): 20.8 nM; `CC(C)C[C@H]1NC(=O)[C@H](CCCN)NC(=O)[C@H](C(C)C)NC(=O)[C@H](Cc2ccc(-c3ccccc3)cc2)NC(=O)[C@H](C(C)C)NC(=O)[C@H](Cc2c[nH]c3ccccc23)NC(=O)[C@H](CC(=O)O)NC(=O)[C@H](Cc2ccc(OCC(=O)O)cc2)NC(=O)[C@H](Cc2ccc(OCC(=O)O)cc2)NC(=O)CSC[C@@H](C(=O)N[C@@H](C)C(N)=O)NC(=O)[C@H](Cc2cnc[nH]2)NC(=O)[C@H](C(C)C)NC(=O)[C@H](CC2CCCCC2)NC(=O)[C@H](CCN)NC1=O` [Compound 1752] ({CH2CO}-Y(Carboxymethyl)Y(Carboxymethyl)DWV[Bip]V[Orn][dL][Dab][Cha]VHCA-NH2; thioether N-14): 6.7 nM; `CC(C)C[C@H]1NC(=O)[C@H](CCCN)NC(=O)[C@H](C(C)C)NC(=O)[C@H](Cc2ccc(-c3ccccc3)cc2)NC(=O)[C@H](C(C)C)NC(=O)[C@H](Cc2c[nH]c3ccccc23)NC(=O)[C@H](CC(=O)O)NC(=O)[C@H](Cc2ccc(OCC(=O)O)cc2)NC(=O)[C@H](CN)NC(=O)CSC[C@@H](C(=O)N[C@@H](C)C(N)=O)NC(=O)[C@H]([C@@H](C)O)NC(=O)[C@H](C(C)C)NC(=O)[C@H](CC2CCCCC2)NC(=O)[C@H](Cc2cnc[nH]2)NC1=O` [Compound 1525]: 15.4 nM. Same read-out and setting: next, `CC(C)C[C@@H]1NC(=O)[C@H](Cc2c[nH]c3ccccc23)NC(=O)[C@H](CC(=O)O)NC(=O)[C@H](Cc2ccncc2)NC(=O)[C@H](Cc2ccc(OCC(=O)O)cc2)NC(=O)CSC[C@@H](C(=O)NCC(N)=O)NC(=O)[C@H](CO)NC(=O)[C@H](C(C)C)NC(=O)[C@H](CC(C)C)NC(=O)[C@H](CC(N)=O)NC(=O)[C@@H](CC(C)C)NC(=O)[C@H](CN)NC(=O)[C@H](C(C)C)NC(=O)[C@H](Cc2ccc(-c3ccccc3)cc2)NC1=O` [Compound 1278] ({CH2CO}-Y(Carboxymethyl)[4Pal]DWL[Bip]V[Dap][dL]NLVSCG-NH2; thioether N-14): 27.3 nM; `CC(C)C[C@@H]1NC(=O)[C@H](Cc2c[nH]c3ccccc23)NC(=O)[C@H](CC(=O)O)NC(=O)[C@H](Cc2ccncc2)NC(=O)[C@H](Cc2ccc(OCC(=O)O)cc2)NC(=O)CSC[C@@H](C(=O)NCC(N)=O)NC(=O)[C@H](CO)NC(=O)[C@H](C(C)C)NC(=O)[C@H](CC2CCCCC2)NC(=O)[C@H](CCN)NC(=O)[C@@H](CC(C)C)NC(=O)[C@H](CCCN)NC(=O)[C@H](C(C)C)NC(=O)[C@H](Cc2ccc(-c3ccccc3)cc2)NC1=O` [Compound 1406] ({CH2CO}-Y(Carboxymethyl)[4Pal]DWL[Bip]V[Orn][dL][Dab][Cha]VSCG-NH2; thioether N-14): 15.9 nM. Still for that read-out and setting: next, `CC(C)C[C@H]1NC(=O)[C@H](CCCN)NC(=O)[C@H](C(C)C)NC(=O)[C@H](Cc2ccc(-c3ccccc3)cc2)NC(=O)[C@H](C(C)C)NC(=O)[C@H](Cc2c[nH]c3ccccc23)NC(=O)[C@H](CC(=O)O)NC(=O)[C@H](Cc2ccc(OCC(=O)O)cc2)NC(=O)[C@H](CN)NC(=O)CSC[C@@H](C(=O)N[C@@H](C)C(N)=O)NC(=O)[C@H](CCCN)NC(=O)[C@H](C(C)C)NC(=O)[C@H](CC2CCCCC2)NC(=O)[C@H](CCN)NC1=O` [Compound 1741] ({CH2CO}-[Dap]Y(Carboxymethyl)DWV[Bip]V[Orn][dL][Dab][Cha]V[Orn]CA-NH2; thioether N-14): 8.8 nM; `CC(C)C[C@H]1NC(=O)[C@H](CCCN)NC(=O)[C@H](CCC(=O)O)NC(=O)[C@H](Cc2ccc(-c3ccccc3)cc2)NC(=O)[C@H](C(C)C)NC(=O)[C@H](Cc2ccccc2F)NC(=O)[C@H](CC(=O)O)NC(=O)[C@H](Cc2ccncc2)NC(=O)[C@H](Cc2ccccc2)NC(=O)CSC[C@@H](C(=O)N[C@@H](C)C(N)=O)NC(=O)[C@H]([C@@H](C)O)NC(=O)[C@H](C(C)C)NC(=O)[C@H](CC2CCCCC2)NC(=O)[C@H](CCN)NC1=O` [Compound 2208] ({CH2CO}-F[4Pal]D[Phe(2-F)]V[Bip]E[Orn][dL][Dab][Cha]VTCA-NH2; thioether N-14): 30.6 nM; `CCCCC[C@@H]1NC(=O)[C@H](Cc2ccc(-c3ccccc3)cc2)NC(=O)[C@H](C(C)C)NC(=O)[C@H](Cc2c[nH]c3ccccc23)NC(=O)[C@H](CC(=O)O)NC(=O)[C@H](Cc2ccc(C(=O)O)cc2)NC(=O)[C@H](Cc2ccncc2)NC(=O)CSC[C@@H](C(=O)N[C@@H](CC(N)=O)C(N)=O)NC(=O)[C@H](CO)NC(=O)[C@H](C(C)C)NC(=O)[C@H](CC2CCCCC2)NC(=O)[C@H](CCN)NC(=O)[C@@H](C)NC(=O)[C@H](CCCN)NC1=O` [Compound 2541] ({CH2CO}-[4Pal][Phe(4-COOH)]DWV[Bip][Ahp(2)][Orn][dA][Dab][Cha]VSCN-NH2; thioether N-14): 58.4 nM.

`Cc1cccc(C[C@@H]2NC(=O)[C@H](CC(=O)O)NC(=O)[C@H](Cc3ccc(OCC(=O)O)cc3)NC(=O)[C@H](Cc3ccc(OCC(=O)O)cc3)NC(=O)CSC[C@@H](C(=O)NCC(N)=O)NC(=O)[C@H](CO)NC(=O)[C@H](C(C)C)NC(=O)[C@H](CC3CCCCC3)NC(=O)[C@H](CCN)NC(=O)[C@@H](CC(C)C)NC(=O)[C@H](CCCN)NC(=O)[C@H](C(C)C)NC(=O)[C@H](Cc3ccc(-c4ccccc4)cc3)NC(=O)[C@H](CC(C)C)NC2=O)c1` [Compound 1650] ({CH2CO}-Y(Carboxymethyl)Y(Carboxymethyl)D[Phe(3-Me)]L[Bip]V[Orn][dL][Dab][Cha]VSCG-NH2; thioether N-14): the IC50 under setting [1] stood at 24.2 nM. Consider `COc1ccc(C[C@@H]2NC(=O)[C@H](CC(=O)O)NC(=O)[C@H](Cc3ccc(OCC(=O)O)cc3)NC(=O)[C@H](CN)NC(=O)CSC[C@@H](C(=O)N[C@@H](C)C(N)=O)NC(=O)[C@H]([C@@H](C)O)NC(=O)[C@H](C(C)C)NC(=O)[C@H](CC3CCCCC3)NC(=O)[C@H](CCN)NC(=O)[C@@H](CC(C)C)NC(=O)[C@H](CCCN)NC(=O)[C@H](CCC(=O)O)NC(=O)[C@H](Cc3ccc(-c4ccccc4)cc3)NC(=O)[C@H](C(C)C)NC2=O)cc1` [Compound 2140] ({CH2CO}-[Dap]Y(Carboxymethyl)DY(Me)V[Bip]E[Orn][dL][Dab][Cha]VTCA-NH2; thioether N-14), for which, under setting [1], the IC50 came out at 478 nM.

`CC(C)C[C@@H]1NC(=O)[C@H](Cc2c[nH]c3ccccc23)NC(=O)[C@H](CC(=O)O)NC(=O)[C@H](Cc2ccc(OCC(=O)O)cc2)NC(=O)[C@H](CN)NC(=O)CSC[C@@H](C(=O)NCC(N)=O)NC(=O)[C@H](CO)NC(=O)[C@H](C(C)C)NC(=O)[C@H](CC2CCCCC2)NC(=O)[C@H](CC(N)=O)NC(=O)[C@@H](CC(C)C)NC(=O)[C@H](CCCN)NC(=O)[C@H](C(C)C)NC(=O)[C@H](Cc2ccc(-c3ccccc3)cc2)NC1=O` [Compound 1336] ({CH2CO}-[Dap]Y(Carboxymethyl)DWL[Bip]V[Orn][dL]N[Cha]VSCG-NH2; thioether N-14) showed an IC50 (Jurkat HPD1_PDL1 IC50, Jurkat-PD-1 cells) of 21.2 nM.

In the case of `Cc1cccc(C[C@@H]2NC(=O)[C@H](CC(=O)O)NC(=O)[C@H](Cc3ccc(C(=O)O)cc3)NC(=O)[C@H](Cc3ccsc3)NC(=O)CSC[C@@H](C(=O)N[C@@H](CCN)C(N)=O)NC(=O)[C@H](CO)NC(=O)[C@H](C(C)(C)O)NC(=O)[C@H](CC3CCCCC3)NC(=O)[C@H](CCN)NC(=O)[C@@H](CC(C)C)NC(=O)[C@H](CCCN)NC(=O)[C@H](Cc3ccc(C(=O)O)cc3)NC(=O)[C@H](Cc3ccc(-c4ccccc4)cc3)NC(=O)[C@H](Cc3ccc(OCC(=O)O)cc3)NC2=O)c1` [Compound 2660] ({CH2CO}-[3Thi][Phe(4-COOH)]D[Phe(3-Me)]Y(Carboxymethyl)[Bip][Phe(4-COOH)][Orn][dL][Dab][Cha][Val(3-OH)]SC[Dab]-NH2; thioether N-14), the IC50 under setting [1] turned out to be 3.9 nM.

As for `Cc1cccc(C[C@@H]2NC(=O)[C@H](CC(=O)O)NC(=O)[C@H](Cc3ccc(C(=O)O)cc3)NC(=O)[C@H](Cc3ccsc3)NC(=O)CSC[C@@H](C(=O)N[C@@H](CCN)C(N)=O)NC(=O)[C@H](CO)NC(=O)[C@H](C(C)(C)O)NC(=O)[C@H](CC3CCCCC3)NC(=O)[C@H](CCN)NC(=O)[C@@H](CC(C)C)NC(=O)[C@H](CCCN)NC(=O)[C@H](Cc3ccc(OCC(=O)O)cc3)NC(=O)[C@H](Cc3ccc(-c4ccccc4)cc3)NC(=O)[C@H](Cc3ccc(OCC(=O)O)cc3)NC2=O)c1` [Compound 2617] ({CH2CO}-[3Thi][Phe(4-COOH)]D[Phe(3-Me)]Y(Carboxymethyl)[Bip]Y(Carboxymethyl)[Orn][dL][Dab][Cha][Val(3-OH)]SC[Dab]-NH2; thioether N-14), the half-inhibitory concentration (IC50) under setting [1] came out at 3.1 nM.

(Values after patent US20250163104A1, “MACROCYCLIC IMMUNOMODULATORS” (priority 2021, published 2025).)
